Here are results for 85 compounds from ChEMBL document CHEMBL1157539, “Thousands of chemical starting points for antimalarial lead identification” (Nature, 2010).

In the test the test system is Plasmodium falciparum. In words: GSK_TCMDC: Inhibition of Plasmodium falciparum 3D7 in whole erythrocytes, using parasite LDH activity as an index of growth. The class given is functional, organism-based. To be noted: Plasmodium falciparum, 3D7.
The compound `Cc1cc(N/N=C/c2cccc([N+](=O)[O-])c2)c2cc(F)ccc2n1` showed an XC50 of 595 nM.
Turning to `Cc1[nH]c(C)c(-c2ccc(Oc3ccc(Cl)cc3)cc2)c(=O)c1Cl`, the XC50 came to 787 nM.
In the case of `CCN(CC)CCNc1ccc(Nc2ccnc3cc4ccccc4cc23)cc1`, the XC50 was 197 nM.
The compound `Cc1cc(N[C@@H](Cc2ccccc2)C(=O)NCc2cccs2)nc(NCCc2ccccc2)n1` yielded an XC50 of 790 nM.
Consider `COc1cccc(C(=O)NC(c2ccccc2OC)c2cc(Cl)c3cccnc3c2O)c1` (stereo not given), for which the XC50 worked out at 1190 nM.
`COc1ccc(CNC2CCN(C)CC2)cc1-c1ccc(S(=O)(=O)NC2CCC2)c(C)c1` gave an XC50 of 993 nM.
Take `O=c1cc(NCCCNCc2cccc(Oc3ccccc3)c2)[nH]c2ccccc12`: the XC50 came out at 946 nM.
Compound `CC(Cc1ccc(NC(=O)c2ccc(CNCCCCc3ccccc3)cc2)cc1)NCCc1cccc(Cl)c1` (stereo not given) showed an XC50 of 334 nM.
`O=C(NCc1cccc(Cl)c1)c1ccc(CNC2CCN(Cc3ccccc3)CC2)cc1`: the XC50 is 884 nM.
For the compound `CCOc1ccc2c(c1)C(C)(c1ccc3c(c1)C(C)CC(C)(C)N3)CC(C)(C)N2` (stereo not given), the XC50 was 803 nM.
With `OC(CNc1ccnc(Nc2cccc(Cl)c2)n1)c1cccc(F)c1` (stereo not given), the XC50 came to 973 nM.
The same measure for `Cc1ccc2nc3sc(C(=O)NCCCN4CCC(N5CCCCC5)CC4)cc3cc2c1`: 675 nM; for `Cc1cc(N[C@@H](Cc2ccccc2)C(=O)NCCOc2ccccc2)nc(NCC2CCCCC2)n1`: 854 nM.
The compound `CC1(C)N=C(N)N=C(N)N1OCC1COc2ccccc2O1` (stereo not given) displayed an XC50 of 35 nM.
In turn, `Cc1cc(Nc2ccccc2)nc(Nc2ccccc2C)n1` registered an XC50 of 1040 nM.
In the case of `COc1cc(Cc2cnc(N)nc2N)cc(OCCCC#N)c1OC`, the XC50 is 1030 nM.
The figure for `Cc1cccc2nc(-c3ccc(-c4cccc(CNCCNC(=O)c5ccnn5C)c4)cc3)[nH]c12` is 396 nM; for `CC(=O)Nc1ccc(C(=O)Nc2cccc(-c3ccc(-c4nc5cc(C(F)(F)F)ccc5[nH]4)cc3)c2)cn1` it is 231 nM; for `CS(=O)(=O)Cc1ccc(Nc2nccc(-c3c(-c4cccc(NC(=O)c5c(F)cccc5F)c4)nn4ncccc34)n2)cc1` it is 162 nM.
Consider `COCCn1ccc2c3c(N)nc(N)nc3ccc21`, for which the XC50 was found to be 214 nM.
As for `COc1cc(-c2nc(-c3ccc([N+](=O)[O-])cc3)c(-c3ccccc3)[nH]2)cc(OC)c1O`, the XC50 is 830 nM.
The compound `CCC(Nc1noc(-c2c(-c3ccccc3)noc2C)n1)c1ccccc1` (stereo not given) had an XC50 of 973 nM.
As to `COc1ccc(-c2ccc([N+](=O)[O-])cc2C(=O)NCC(C)Oc2ccc(C(F)(F)F)cc2)cc1` (stereo not given), the XC50 was found to be 550 nM.
`Cc1c(Cn2nc(Cl)c(N3CCNCC3)cc2=O)cccc1NC(=O)Nc1ccc(-c2ccccc2)cc1` had an XC50 of 1380 nM.
`N#Cc1cccc(Nc2nccc(NCC(O)c3cccc(C(F)(F)F)c3)n2)c1` (stereo not given) gave an XC50 of 553 nM.
With `c1ccc(CCNCc2cccc(-c3ccc(CNc4ccc5ncccc5c4)cc3)c2)cc1`, the XC50 was determined as 810 nM.
Compound `CCN(CCCN1CCCCC1)c1cc(C)nc(Nc2ccc(C)c(C)c2)n1` showed an XC50 of 1020 nM.
The figure for `O=C(Nc1cccc(F)c1)c1ccc(C(=O)NC2CCN(CC3CCCCC3)CC2)cc1` is 863 nM; for `C/C(=C\C(=O)NC1CC1)c1ccccc1OCc1ccccc1` it is 504 nM.
On to `CCc1ccc(NC(=O)c2cccc(CN3CCCN(CC4CCCCC4)CC3)c2)cc1`, for which the XC50 was determined as 952 nM.
The figure for `CCOC(=O)c1ccc(OCCOc2ccccc2)cc1` is 367 nM.
Compound `CN(C)Cc1ccc(-c2cccc(NC(=O)c3cccc(Cl)c3)c2)cc1` registered an XC50 of 693 nM.
In turn, `O=S(=O)(Nc1cc2c(cc1O)CCN(C1CCC1)CC2)c1ccc(-c2ccc(F)cc2)cc1` returned an XC50 of 417 nM.
The compound `COc1ccc(-c2cc(C(=O)N[C@@H](CC3CCCCC3)C(=O)NC3CCCc4ccccc43)ccc2O)cc1` (stereo not given in full) displayed an XC50 of 688 nM.
The same measure for `COc1ccc2nccc([C@@H](O)CN3CCC(NC(=O)c4cc5c(F)cc(F)cc5[nH]4)CC3)c2c1`: 245 nM; for `O=C(Nc1cccc(C(F)(F)F)c1)c1cccc2nc(C(F)(F)F)[nH]c12`: 644 nM.
`Oc1cccc(Nc2nc(NCc3ccco3)c3ccccc3n2)c1` yielded an XC50 of 415 nM.
`Cc1ccc(NC(=O)c2ccc3nccnc3c2)cc1OC1CCN(Cc2ccc(F)cc2)CC1` displayed an XC50 of 1010 nM.
`COc1ccc(N2CCN(CCCCNC(=O)c3ccc(NC(=O)c4ccc(Cl)cc4)cc3)CC2)c(OC)c1` had an XC50 of 951 nM.
In the case of `COc1ccc(-c2ccc(CN(C)C3CCC(NC(=O)c4cc5ccccc5[nH]4)CC3)cc2)cn1` (stereo not given), the XC50 was 871 nM.
The figure for `CCCNS(=O)(=O)c1ccc(NC(=O)C(C)Oc2ccc([N+](=O)[O-])cc2)cc1` (stereo not given) is 719 nM; for `COc1ccc2nccc([C@@H](O)CN3CCC(NC(=O)C(c4cc5ccccc5s4)N4CC(C)OC(C)C4)CC3)c2c1` (stereo not given in full) it is 981 nM.
As to `CC(C)COc1ccc2ccccc2c1CNCCCCCCNCc1c(OCC(C)C)ccc2ccccc12`, the XC50 worked out at 695 nM.
Compound `O=[N+]([O-])c1cccc(NC(=S)N2CCCN(Cc3ccc(C(F)(F)F)cc3)CC2)c1` returned an XC50 of 1200 nM.
`Cc1ccc(C2CCN(CCCCNC(=O)c3ccc(NC(=O)c4ccc(Cl)cc4)cc3)CC2)c(C)c1` registered an XC50 of 842 nM.
In the case of `COc1ccc(C2C(C(=O)Nc3cc(OC)c(OC)c(OC)c3)c3cc(OC)c(OC)cc3C(=O)N2C)cc1` (stereo not given), the XC50 came out at 801 nM.
`O=C(NC1CCN(CCCOc2ccnc3cc(Cl)ccc23)C1)c1ccc(Br)cc1` (stereo not given) gave an XC50 of 1020 nM.
Regarding `CC(Cc1ccc(COc2ccc(CC(CO)NCCc3cccc(Cl)c3)cc2)cc1)NCCc1cccc(Cl)c1` (stereo not given), the XC50 worked out at 821 nM.
In turn, `CC(C)(CNC(=O)/C=C/c1ccc(C(F)(F)F)cc1)CNc1cc(=O)c2ccccc2[nH]1` had an XC50 of 912 nM.
The compound `CCCc1cc(=O)oc2cc(OC)c(C(=O)CC(C)C)c(OC)c12` registered an XC50 of 1010 nM.
`CN(C)CCN(C)Cc1ccc(-c2cccc(NC(=O)c3cccc(C#N)c3)c2)cc1` returned an XC50 of 1180 nM.
The compound `CN1C2CCC1c1cc(NC(=O)c3cc(-c4ccc(Cl)cc4)cs3)ccc12` (stereo not given) returned an XC50 of 1300 nM.
For `CCCC(C)Nc1nc(C)cc(N[C@@H](CC(C)C)C(=O)NCc2cccc(F)c2)n1` (stereo not given in full), the XC50 came out at 1000 nM.
`O=C(CCc1nc2c(cnn2-c2ccccc2)c(=O)[nH]1)NC1CCSc2ccccc21` (stereo not given) returned an XC50 of 1060 nM.
In turn, `c1cc(CNCCN2CCNCC2)cc(-c2cccc(-c3nc4ccccc4[nH]3)c2)c1` registered an XC50 of 959 nM.
For `C[C@H](Cc1ccc(OCCCCOc2ccc(C[C@@H](C)NC[C@H](O)c3cccc(Cl)c3)cc2)cc1)NC[C@H](O)c1cccc(Cl)c1`, the XC50 is 756 nM.
The same measure for `CN(C)CCNC(=O)N1CCCN(c2ncnc3cc(-c4ccc(Cl)cc4)sc23)CC1`: 1020 nM; for `CN1CCN(c2ccnc3ccc(NC(=O)Nc4ccc(-c5ccncc5)c(C#N)c4)cc23)CC1`: 158 nM.
The compound `Cc1nnsc1C(=O)Nc1cccc(-c2cccc(-c3nc4cc(F)ccc4[nH]3)c2)c1` gave an XC50 of 218 nM.
`COc1ccc2nccc([C@@H](O)CNCCCN(C)CCOc3cc(F)cc(F)c3)c2c1` displayed an XC50 of 789 nM.
The compound `O=C(/C=C/c1ccc(F)c(C(F)(F)F)c1)N1CCC(CN2CCC(c3c[nH]c4ccccc34)CC2)CC1` returned an XC50 of 917 nM.
In turn, `CCOC(=O)C1=C(C)NC2=C(C(=O)CC(C)(C)C2)C1c1ccc(Br)cc1` (stereo not given) had an XC50 of 1160 nM.
In turn, `COc1cccc(O)c1CNCC(O)c1cccc(C(F)(F)F)c1` (stereo not given) showed an XC50 of 945 nM.
For the compound `O=C(/C=C/c1ccc(Cl)c(Cl)c1)NC1CCC(CN2CCC(c3nc4ccccc4n3CCCO)CC2)CC1` (stereo not given), the XC50 came to 577 nM.
Regarding `COc1ccc(CN2CCN(CCOC(c3ccccc3)c3ccc(Cl)cc3)CC2)c(O)c1` (stereo not given), the XC50 was 713 nM.
Turning to `CCNc1cc(C(=O)N[C@@H](Cc2ccccc2)[C@H](O)CNC(CC)c2cccc(Cl)c2)cc(N2CCCCS2(=O)=O)c1` (stereo not given in full), the XC50 stood at 51.7 nM.
For the compound `O=C(Nc1ccsc1)Nc1cccc(-c2cccc(-c3nc4cc(F)ccc4[nH]3)c2)c1`, the XC50 is 199 nM.
In turn, `CC(C)C[C@H](NC(=O)[C@H](Cc1ccccc1)NC(=O)CCN1C(=O)COc2ccc(C(=O)O)cc21)C(=O)NC(CC1CCCCC1)C(O)CC(=O)NCCCn1ccnc1` (stereo not given in full) displayed an XC50 of 970 nM.
The same measure for `Nc1nc(F)nc2nc[nH]c12`: 432 nM; for `CC1CN(Cc2ccc(-c3cccc(-c4nc5cc(F)ccc5[nH]4)c3)cc2)CC(C)O1` (stereo not given): 917 nM.
`CN(Cc1cnc2nc(N)nc(N)c2n1)c1ccc(C(=O)N[C@H](CCC(=O)OC(C)(C)C)C(=O)N[C@@H](CCC(=O)OC(C)(C)C)C(=O)OC(C)(C)C)cc1`: the XC50 is 1020 nM.
Turning to `Cn1nc(-c2ccc(S(=O)(=O)N3CCC(CCN4CCC(c5c[nH]c6ccccc56)CC4)CC3)s2)cc1C(F)(F)F`, the XC50 is 815 nM.
On to `CCN1CCN(C(=O)NC(C(=O)N(C)Cc2ccc(-c3ccc(C(F)(F)F)cc3)cc2)c2cccs2)C(=O)C1=O` (stereo not given), for which the XC50 was 356 nM.
The same measure for `COc1ccc(C=Cc2ccc(-c3c(C)[nH]c(C)c(Cl)c3=O)cc2)cc1OC`: 283 nM; for `CC(C)(C)OC(=O)N[C@@H](Cc1ccccc1)C(=O)Nc1cccc(-c2cccc(NC(=O)[C@H](Cc3ccccc3)NC(=O)OC(C)(C)C)c2)c1`: 609 nM; for `Cc1ccc(S(=O)(=O)NC(=N)NC(N)=O)cc1`: 794 nM.
Take `C[C@H]1CN(Cc2cccc(-c3cc(CNC(=O)c4cccc(CC5CCN(C)CC5)c4)ccc3F)c2)CCN1C`: the XC50 was determined as 1090 nM.
On to `CC1(C)N=C(N)N=C(N)N1OCc1cccc(C#N)c1`, for which the XC50 was 7.93 nM.
Consider `CN(C)CCOc1ccc2nc(-c3cccc(OCc4ccccc4)c3)[nH]c2c1C#N`, for which the XC50 came to 256 nM.
`CN1CC=C(C=Cc2c[nH]c3ccccc23)CC1`: the XC50 was 1340 nM.
In the case of `COc1cccc(CNC(=O)NC2CCN(c3ccnc(Nc4ccc(F)cc4)n3)C2)c1` (stereo not given), the XC50 came out at 805 nM.
In the case of `Cc1nc(C)c(-c2ccc(Oc3cc(Cl)cc(Cl)c3)cc2)c(O)c1Cl`, the XC50 stood at 524 nM.
The compound `Cc1cc(NS(=O)(=O)c2cccc(C(C)N3CCC(N4CCCC4)CC3)c2)ccc1C(C)C` (stereo not given) returned an XC50 of 824 nM.
The figure for `c1csc(-c2nc(N3CCCC3)ncc2-c2ccsc2)n1` is 210 nM; for `Fc1ccc(-c2cc(NCCCn3ccnc3)nc(-c3cccnc3)n2)cc1` it is 974 nM.
